# Patent US20230060588A1 (priority 2021, published 2023)
# Tests used:
# MCF7 cells [1] = format: cell-based
# MCF7 cells [2] = tested on: MCF7 cells
# A375 cells [3] = format: cell-based
# A375 cells [4] = tested on: A375 cells
# PANC1 cells [5] = format: cell-based
# MCF7 cells [6] = format: cell-based; remark: listed apart in the source
# ACE2 = format: cell-based, human
# [7] = tested on: SARS-CoV-2 S1 protein-ACE2; format: binding
# A549 cells = format: cell-based, human
# [8] = tested on: Reporter mNeonGreen SARS-CoV-2 virus (2019-nCoV/USA_WA1/2020); format: cell-based
# PANC1 cells [9] = format: cell-based; remark: listed apart in the source
# MDA-MB-231 cells = format: cell-based
# LN18 cells = format: cell-based
# SARS-CoV-2 S1 protein = format: cell-based
# SARS-CoV-2 = settings: cited from earlier work
smiles,measurement,setting,value
"CC(=O)OC1O[C@H](CO)[C@@H](OC(C)=O)[C@H](OC(C)=O)[C@@H]1OC(C)=O (stereo partly drawn) [1,2,3,4-tetra-O-Acetyl-D-mannopyranose]",ECL binding,MCF7 cells [1],moderately reduced
same,MAL2 binding,MCF7 cells [1],no effect
same,PNA binding,MCF7 cells [1],significantly reduced
same,SNA binding,MCF7 cells [1],no effect
same,cell toxicity,MCF7 cells [2],induced cell toxicity at a higher concentration
same,concentrations having no impact on cell viability,MCF7 cells [2]; human,less than 0.7 mM
"CC(=O)OC1O[C@H](CO)[C@@H](OC(C)=O)[C@H](O)[C@@H]1O (stereo partly drawn) [1,4-di-O-acetyl-D-mannopyranose]",ECL binding,A375 cells [3],no effect
same,MAL2 binding,A375 cells [3],no effect
same,PNA binding,A375 cells [3],significantly reduced
same,SNA binding,A375 cells [3],no effect
same,cell viability,A375 cells [4],did not have any influence on cell viability
O=C[C@@H](O)[C@@H](O)[C@H](O)[C@H](O)CO [D-mannose],ECL binding,MCF7 cells [1],generally reduced
same,MAL2 binding,MCF7 cells [1],increasing
same,PNA binding,MCF7 cells [1],generally reduced
same,SNA binding,MCF7 cells [1],increasing
same,ECL binding,PANC1 cells [5],generally reduced
same,MAL2 binding,PANC1 cells [5],increasing
same,PNA binding,PANC1 cells [5],generally reduced
same,SNA binding,PANC1 cells [5],increasing
same,disialyl T antigen/T antigen ratio,MCF7 cells [6],significantly enhanced
same,sialylation of complex N-glycans,MCF7 cells [6],sialic acids were added to multiple N-glycans
same,ACE2 expression,ACE2,did not significantly change
same,ACE2 binding of S1 protein,[7],reduced ACE2 binding
same,cytotoxicity,A549 ACE2+ cells,no observed cytotoxicity
same,total cell count,A549 ACE2+ cells,negligible difference in cell count
same,ECL binding,A549 cells,significantly reduced
same,MAL2 binding,A549 cells,slightly enhancing
same,PNA binding,A549 cells,minimal to no influence
same,SNA binding,A549 cells,minimal to no influence
same,cytoprotection,[8],significant cytoprotection
same,reduction in viral replication,[8],~70%
same,disialyl T antigen/T antigen ratio,PANC1 cells [9],significantly increased
same,sialyl T antigen/T antigen ratio,PANC1 cells [9],significantly increased
same,ECL binding,MDA-MB-231 cells,significantly reduced
same,MAL2 binding,MDA-MB-231 cells,no effect on enhancing
same,PNA binding,MDA-MB-231 cells,significantly reduced
same,SNA binding,MDA-MB-231 cells,no effect on enhancing
same,ECL binding,LN18 cells,significantly reduced
same,MAL2 binding,LN18 cells,no effect on enhancing
same,PNA binding,LN18 cells,significantly reduced
same,SNA binding,LN18 cells,no effect on enhancing
same,ECL binding to S1 protein,SARS-CoV-2 S1 protein,significantly reduced
same,MAL1 binding to S1 protein,SARS-CoV-2 S1 protein,moderately reduced
same,MAL2 binding to S1 protein,SARS-CoV-2 S1 protein,moderately reduced
same,PNA binding to S1 protein,SARS-CoV-2 S1 protein,No PNA binding was observed
same,RSL binding to S1 protein,SARS-CoV-2 S1 protein,significantly reduced
same,SNA binding to S1 protein,SARS-CoV-2 S1 protein,no change
CN(Cc1cnc2nc(N)nc(N)c2n1)c1ccc(C(=O)N[C@@H](CCC(=O)O)C(=O)O)cc1 [methotrexate],SARS-CoV-2 replication,SARS-CoV-2,reduced
